Laboratory results taken from patent US5372944A, “Method for conversion of halogenated hydrocarbons to halohydrins” (The Dow Chemical Company, priority 1993, dated 1994).

Tests used:
[1] = tested on: dehalogenase in cell free extracts of Rhodococcus Rhodochrous, TDTM-003; assay: Primary screen of dehalogenase activity in cell free extracts of TDTM-003; type: biochemical
Procedure: Following overnight growth, 50 μl of 1-chlorobutane was added to induce the dehalogenase. After 24 hours induction, cells were harvested by centrifugation, resuspended in cold 10mM Tris sulfate/1 mM disodium EDTA, pH=7.5, and disrupted by sonication. Cell debris was removed by centrifugation at 10,000 rpm for 30 minutes, cell free extracts dialyzed overnight against the same buffer, and assayed without dilution for dehalogenase activity.
Free chloride or bromide was assayed qualitatively using a chloride electrode (Orion), or quantitatively using the colorimetric method (430 nm) described by J. G. Bergmann, et al., Anal. Chem., 29:241-243 (1957).
(§1) Hydrolytic dehalogenase enzyme activity was evaluated by adding an appropriate amount of cell free extract or enzyme preparation to 5.0 mL of 100 mM glycine buffer, pH=9.0 in a 7 mL glass vial. The halogenated substrate (5.0 μl) and a small stir bar were added, and the vial capped. Reaction was initiated by transfer to a 30° C. water bath equipped with a magnetic stirrer. Periodically 1.0 mL samples were removed and assayed for free halide. Rates were determined after correcting for non-enzymatic hydrolysis with an appropriate blank. A standard curve was prepared using sodium chloride.
Preliminary studies were performed on cell free extracts of TDTM-003 to evaluate the enzyme substrate selectivity, and the results of this study are shown in Table 2.

[2] = biological target: partially purified TDTM-003 dehalogenase (Rhodococcus sp. TDTM0003, UniProt P59336); assay: Substrate profile of partially purified TDTM-003 dehalogenase; type: biochemical, Rhodococcus species TDTM-003; conditions: corrected for non-enzymatic hydrolysis
Sequence of partially purified TDTM-003 dehalogenase (P59336 whole entry): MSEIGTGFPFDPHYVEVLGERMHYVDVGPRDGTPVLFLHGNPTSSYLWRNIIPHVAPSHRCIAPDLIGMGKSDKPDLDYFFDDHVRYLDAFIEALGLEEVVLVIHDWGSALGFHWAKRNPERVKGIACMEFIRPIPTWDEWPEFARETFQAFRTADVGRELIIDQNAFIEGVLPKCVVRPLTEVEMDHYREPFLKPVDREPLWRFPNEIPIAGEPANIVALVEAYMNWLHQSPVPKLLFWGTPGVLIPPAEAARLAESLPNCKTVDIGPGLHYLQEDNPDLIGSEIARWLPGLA
Procedure: as §1
Frozen pellets from 2 liters of culture were thawed into 150 mL of 10 mM Tris sulfate buffer, pH=7.5 containing 1 mM disodium EDTA. This buffer was used throughout the entire purification. The suspension was sonicated for approximately 1 hour with ice cooling using a Microson Ultrasonic Cell Disrupter and centrifuged at 10,000 rpm for 15 minutes to remove cell debris. Supernatant was removed and the sonication/centrifugation repeated with fresh buffer to increase enzyme yield. Overall sonication efficiency was monitored by absorbence at 280 nm. Cell free extracts were combined and brought slowly to 30 percent saturation with solid ammonium sulfate. The suspension was centrifuged at 10,000 rpm for 30 minutes and the pellet discarded. The supernatant was brought to 70 percent saturation with solid ammonium sulfate and centrifugation repeated. Supernatant was discarded and the pellet taken up in a small volume of buffer and dialyzed overnight against 1 liter of the same. The preparation was applied to a 1.5×15cm column of DEAE-Sephadex equilibrated with the same buffer elution carried out with a 1 liter gradient from 0 to 400 mM ammonium sulfate. Fractions of about 7-8 mLs were collected. The active fractions were pooled and brought to 90 percent saturation with ammonium sulfate. The pellet was taken up in a minimal amount of buffer, ultrafiltered to 2.5 mL using 10,000 MWCO Novacell Ultrafiltration cell, and applied to a 1.5×90 cm Sephadex G-100 column. Elution was by gravity at 90 cm and fractions of 7-8 mLs were collected. Active fractions were poled, brought to 30 percent saturation with ammonium sulfate, and applied to a 10 ml column of Butyl-agarose equilibrated in the same. Elution was performed with a 500 mL gradient from 30 percent-0 percent ammonium sulfate. Active fractions were pooled, dialyzed and used for substrate selectivity studies.
To evaluate the substrate selectivity of haloalkane dehalogenase from isolated Rhodococcus species, an enzyme preparation from the strain designated TDTM-003 was purified by the procedure described under General Experimental. This preparation provided a dehalogenase which was approximately 50 percent pure as estimated by SDS-PAGE and was free of interfering halohydrin dehalogenase activity.
The activity of this partially purified TDTM-003 dehalogenase preparation was evaluated against various chlorinated and brominated substrates. Each enzymatic rate was corrected for non-enzymatic hydroloysis.

[3] = tested on: double mutants lacking both ADH and halohydrin dehalogenase activity; assay: Whole cell conversion of DCP, DCB and TCP by double mutants: kinetics, selectivity, enantioselectivity; type: cell-based, Rhodococcus species; conditions: double mutants grown on succinate, induced with 1-chlorobutane
Procedure: To evaluate kinetics and selectivity of various mutants with respect to conversion of the target halocarbons, 1,2-dichloropropane (DCP), 1,2-dichloro-butane (DCB) and 1,2,3-trichloropropane (TCP) cultures were first inoculated from slants into 25 mL nutrient media in a 125 mL flask and grown overnight. Five mL were inoculated into 50 mL of MM1X4P containing 5 g/L disodium succinate in a 250 mL flask. Following 4 hours of growth and again at 8 hours, 10 μl of 1-chlorobutane was added for induction of the dehalogenase. Following 24 hours growth, cells were harvested by centrifugation and resuspended into 50 mL of fresh sterile MM1X4P and transferred to a sterile 250 mL shake flask equipped with a bulb feeder as described by Gibson, et al., supra. DCP, DCB, and TCP were added to bulb feeders and reaction progress monitored by gas chromatography (GC). Throughout the protocol, volumes were modified as needed to provide higher concentrations of cells and/or to provide identical batches of induced cells for comparative studies.
(§2) For gas chromatography (GC) analysis of halogenated metabolites, cultures were centrifuged briefly to remove cells, saturated with sodium sulfate, and an equivalent volume of methylene chloride added. The suspension was vortexed vigorously, centrifuged to break the emulsion and the methylene chloride phase removed.
(§3) Analysis of all halocarbon substrates and products from culture broths was done by GC using a Hewlett Packard 5710 equipped with a 7671A Autoinjector with the following protocol:
Analysis for optical activity of microbially produced 2,3-dichloro-1-propanol was determined independently using two methods. […] Enantiomeric composition of DCP, DCB, and respective halohydrins can also be monitored using a derivatized cyclodexdrin gas chromatography column (CHIRALDEX™ type B-TA Column, Advanced Separation Technologies, Inc.). Enantiomeric excess was determined by a comparison of peak areas.
The double mutants were evaluated for conversion of DCP, DCB, and TCP following growth on succinate in the presence of 1-chlorobutane as an inducer of the dehalogenase. […]

TDTM-003-60-2-11 = assay: Dehalogenation by double mutant strain TDTM-003-60-2-11 in shake flask with bulb feeder; type: cell-based, Rhodococcus sp.; conditions: 28° C., 150 rpm, substrate from bulb feeder
Description: as §2, §3
Dehalogenation of 1,2-dichloropropane by the double mutant strain of Rhodococcus sp., designated TDTM-003-60-2-11 was assayed in the following manner: 5 mL of an overnight culture (16 hours) were used as inoculum for 50 mL MM1X4P containing 5 g/L disodium succinate in a 250 mL flask. At 4 and 8 hours growth, 10 μL of 1-chlorobutane was added to induce the dehalogenase enzyme. Following 24 hours of growth, cells were harvested by centrifugation, resuspended into 50 mL of fresh MM1X4P, and transferred to a sterile 250 mL shake flask equipped with a bulb feeder. To the bulb feeder was added 1,2-dichloropropane and incubation continued at 28° C. and 150 rpm. […] The production of halohydrin products was monitored by gas chromatography. 1 -Chloro-2-propanol and 2-chloro-1-propanol accumulate linearly in the culture broth to 74 parts-per-million (ppm) (w/v) and 20 ppm (w/v) respectively after 120 hours. The overall rate of halohydrin production is 0.60 mg/g dry cells/hr.
The procedure described in Example 6 was followed except 1,2-dichlorobutanereplaced 1-chlorobutane in the bulb feeder.
The procedure described in Example 6 was followed except 1,2,3-trichloropropane replaced 1-chlorobutane in the bulb feeder.

TDTM-003 = assay: Utilization of carbon containing compounds for growth in liquid culture, TDTM-003; type: cell-based, Rhodococcus species; conditions: strain TDTM-003, liquid culture

Structure (SMILES)	Relative Rate of Chloride Release, 1-chlorobutane = 100 [1]	Relative Rate of Halogen Release, 1-Chlorobutane = 100 [2]	in vivo rates of conversion [3]	overall rate of halohydrin production (TDTM-003-60-2-11)	utilization as a sole source of carbon (TDTM-003)
ClCC(Cl)CCl [1,2,3-trichloropropane]	23	18.000	1.06 mg product/g dry cells/hr	2.39 mg/g dry cells/hr	
CCC(Cl)CCl (stereo not shown) [1,2-dichlorobutane]	108	33.000	1.29 mg product/g dry cells/hr	2.47 mg/g dry cells/hr	
CC(Cl)CCl (stereo not shown) [1,2-dichloropropane]	4.2	5.800	0.30 mg product/g dry cells/hr	0.60 mg/g dry cells/hr	does not utilize
